In patent publication US11078194B2, “Salt form and crystal form serving as FGFR and VEGFR inhibitor compounds, and preparation method therefor” (HARBIN ZHENBAO PHARMACEUTICAL CO., LTD., priority 2017, dated 2021):

Legend:
[1] = Solid stability test of crystal form G, crystal form I and crystal form J (HPLC content, total impurities, XRPD, appearance); format: physicochemical; details: for thermal stability and stability under accelerated conditions: conclusion of influencing factors and accelerated tests
Procedure: About 10 mg of crystal form G, crystal form I, or crystal form J were weighed accurately, and placed on the bottom of a 40 mL glass sample bottle and spread into a thin layer. For an open sample, the bottle mouth thereof was sealed with aluminum foil poked with pinholes to ensure that the sample can fully contact with the ambient air. For a sealed sample, the bottle mouth thereof was sealed with a bottle cap, and wrapped with a sealing film. Two duplicate samples were weighed at each time point of each condition in parallel, and an appropriate amount of sample (not weighed) was taken additionally for XRPD detection. The prepared samples were placed under each condition and were sampled and analyzed when the time point was arrived. On 0th day, 5 control samples were weighed in parallel and stored in a refrigerator at −20° C. until analysis. The samples subjected to light irradiation were prepared by the same method, and placed on the bottom of a 40 mL glass sample bottle. The glass bottle was left open and placed in the upright position in a light irradiation box. In addition, two samples in an appropriate amount were taken as samples in dark, and the glass bottles containing the same were left open, put in the upright position, and wrapped with tin foil, and irradiated with a total luminance of 1.2×10^6Lux.hr and a near ultraviolet power of 200 w.hr/m^2. After irradiation, the samples was stored in the refrigerator at −20° C. for analysis.
The compounds were placed under the following conditions and sampled at different time points to detect the physical properties, and the content and total impurities were analyzed by HPLC.

[2] = Hygroscopicity test by dynamic vapor sorption (DVS); format: physicochemical; details: 25±1° C. and 80±2% RH; for hygroscopicity evaluation: scales in the 11th table
Procedure: Instrument model: SMS DVS Advantage dynamic vapor sorption analyzer Detection conditions: samples (10 mg to 15 mg) were placed in a DVS sample tray for detection. The detailed DVS parameters are as follows: Temperature: 25° C. Balance: dm/dt=0.01%/min (shortest: 10 min, longest: 180 min) Drying: 120 minutes at 0% RH RH (%) gradient for testing: 10% RH (%) range for gradient testing: 0%-90%-0% The hygroscopicity was evaluated using the following scales: [table] 10 to 15 mg of the crystal form I of the compound of formula (III) was taken and placed in a DVS sample tray for testing. 10 to 15 mg of the crystal form J of the compound of formula (IV) was taken and placed in a DVS sample tray for testing.

[3] = Accelerated test (40° C./relative humidity 75%, open), 1st month
[4] = Accelerated test (40° C./relative humidity 75%, open), 2nd month
[5] = Accelerated test (40° C./relative humidity 75%, open), 3rd month
[6] = Accelerated test (40° C./relative humidity 75%, open), 10th day
[7] = Accelerated test (60° C./relative humidity 75%, open), 1st month
[8] = Accelerated test (60° C./relative humidity 75%, open), 2nd month
[9] = Accelerated test (60° C./relative humidity 75%, open), 3rd month
[10] = Accelerated test (60° C./relative humidity 75%, open), 10th day
[11] = High humidity (Room temperature/relative humidity 92.5%, open), 5th day
[12] = High humidity (Room temperature/relative humidity 92.5%, open), 10th day
[13] = High temperature (60° C., open), 5th day
[14] = High temperature (60° C., open), 10th day
[15] = Light irradiation (1.2 × 10^6 Lux·hr, near ultraviolet 200 w·hr/m^2, open), irradiated sample
[16] = Light irradiation test, Dark sample
[17] = Accelerated test (40 C./relative humidity 75%, open), 1st month
[18] = Accelerated test (40 C./relative humidity 75%, open), 2nd month
[19] = Accelerated test (40 C./relative humidity 75%, open), 3rd month
[20] = Accelerated test (40 C./relative humidity 75%, open), 10th day
[21] = Accelerated test (60 C./relative humidity 75%, open), 1st month
[22] = Accelerated test (60 C./relative humidity 75%, open), 2nd month
[23] = Accelerated test (60 C./relative humidity 75%, open), 3rd month
[24] = Accelerated test (60 C./relative humidity 75%, open), 10th day
[25] = Light irradiation (total illuminance 1.2 × 10^6 Lux·hr/near ultraviolet 200 w·hr/m^2, open), light irradiation sample

C[C@@H](Oc1ccc2[nH]nc(/C=C(\F)c3ccc(CNC4CCOCC4)nc3)c2c1)c1c(Cl)cncc1Cl.O=C(O)CC(O)(CC(=O)O)C(=O)O [crystal form I]
Appearance ([1]; 0th day): Earth yellow | Content (%) ([1]; 0th day): 100.00% | Crystal form (XRPD) ([1]; 0th day): form I | Total impurities (%) ([1]; 0th day): 1.91% | Appearance [1, 3]: Earth yellow | Content (%) [1, 3]: 99.83% | Crystal form (XRPD) [1, 3]: form I | Total impurities (%) [1, 3]: 1.88% | Appearance [1, 4]: Earth yellow | Content (%) [1, 4]: 100.06% | Crystal form (XRPD) [1, 4]: form I | Total impurities (%) [1, 4]: 1.82% | Appearance [1, 5]: Earth yellow | Content (%) [1, 5]: 99.32% | Crystal form (XRPD) [1, 5]: form I | Total impurities (%) [1, 5]: 1.86% | Appearance [1, 6]: Earth yellow | Content (%) [1, 6]: 99.93% | Crystal form (XRPD) [1, 6]: form I | Total impurities (%) [1, 6]: 1.85% | Appearance [1, 7]: Earth yellow | Content (%) [1, 7]: 99.95% | Crystal form (XRPD) [1, 7]: form I | Total impurities (%) [1, 7]: 1.74% | Appearance [1, 8]: Earth yellow | Content (%) [1, 8]: 98.46% | Crystal form (XRPD) [1, 8]: form I | Total impurities (%) [1, 8]: 1.79% | Appearance [1, 9]: Earth yellow | Content (%) [1, 9]: 97.31% | Crystal form (XRPD) [1, 9]: form I | Total impurities (%) [1, 9]: 1.83% | Appearance [1, 10]: Earth yellow | Content (%) [1, 10]: 100.19% | Crystal form (XRPD) [1, 10]: form I | Total impurities (%) [1, 10]: 1.85% | Appearance [1, 11]: Earth yellow | Content (%) [1, 11]: 99.10% | Crystal form (XRPD) [1, 11]: form I | Total impurities (%) [1, 11]: 1.88% | Appearance [1, 12]: Earth yellow | Content (%) [1, 12]: 99.92% | Crystal form (XRPD) [1, 12]: form I | Total impurities (%) [1, 12]: 1.73% | Appearance [1, 13]: Earth yellow | Content (%) [1, 13]: 100.40% | Crystal form (XRPD) [1, 13]: form I | Total impurities (%) [1, 13]: 1.93% | Appearance [1, 14]: Earth yellow | Content (%) [1, 14]: 100.26% | Crystal form (XRPD) [1, 14]: form I | Total impurities (%) [1, 14]: 1.83% | Appearance [1, 15]: Earth yellow | Content (%) [1, 15]: 97.37% | Crystal form (XRPD) [1, 15]: form I | Total impurities (%) [1, 15]: 2.35% | Appearance [1, 16]: Earth yellow | Content (%) [1, 16]: 99.42% | Crystal form (XRPD) [1, 16]: form I | Total impurities (%) [1, 16]: 1.85% | thermal stability and stability under accelerated conditions [1]: excellent | stability under dark conditions [1]: good stability | impurities generated under light irradiation conditions [1]: slight impurities | hygroscopic weight gain ΔW [2]: 2.134% | hygroscopicity evaluation [2]: hygroscopic

C[C@@H](Oc1ccc2[nH]nc(/C=C(\F)c3ccc(CNC4CCOCC4)nc3)c2c1)c1c(Cl)cncc1Cl.O=C(O)C[C@H](O)C(=O)O [crystal form J]
Appearance ([1]; 0th day, control): Earth yellow | Crystal form (XRPD) ([1]; 0th day, control): form J | Content (%) ([1]; 0th day, control, HPLC): 100.00% | Total impurities (%) ([1]; 0th day, control, HPLC): 1.42% | Appearance [1, 17]: Earth yellow | Content (%) [1, 17]: 99.31% | Crystal form (XRPD) [1, 17]: form J | Total impurities (%) [1, 17]: 1.36% | Appearance [1, 18]: Earth yellow | Content (%) [1, 18]: 99.40% | Crystal form (XRPD) [1, 18]: form J | Total impurities (%) [1, 18]: 1.20% | Appearance [1, 19]: Earth yellow | Content (%) [1, 19]: 98.62% | Crystal form (XRPD) [1, 19]: form J | Total impurities (%) [1, 19]: 1.20% | Appearance [1, 20]: Earth yellow | Content (%) [1, 20]: 99.44% | Crystal form (XRPD) [1, 20]: form J | Total impurities (%) [1, 20]: 1.33% | Appearance [1, 21]: Earth yellow | Content (%) [1, 21]: 97.07% | Crystal form (XRPD) [1, 21]: form J | Total impurities (%) [1, 21]: 1.43% | Appearance [1, 22]: Earth yellow | Content (%) [1, 22]: 97.22% | Crystal form (XRPD) [1, 22]: form J | Total impurities (%) [1, 22]: 1.48% | Appearance [1, 23]: Earth yellow | Content (%) [1, 23]: 97.18% | Crystal form (XRPD) [1, 23]: form J | Total impurities (%) [1, 23]: 1.53% | Appearance [1, 24]: Earth yellow | Content (%) [1, 24]: 99.05% | Crystal form (XRPD) [1, 24]: form J | Total impurities (%) [1, 24]: 1.36% | Appearance [1, 11]: Earth yellow | Content (%) [1, 11]: 99.06% | Crystal form (XRPD) [1, 11]: form J | Total impurities (%) [1, 11]: 1.31% | Appearance [1, 12]: Earth yellow | Content (%) [1, 12]: 100.58% | Crystal form (XRPD) [1, 12]: form J | Total impurities (%) [1, 12]: 1.32% | Appearance [1, 13]: Earth yellow | Content (%) [1, 13]: 98.83% | Crystal form (XRPD) [1, 13]: form J | Total impurities (%) [1, 13]: 1.39% | Appearance [1, 14]: Earth yellow | Content (%) [1, 14]: 99.11% | Crystal form (XRPD) [1, 14]: form J | Total impurities (%) [1, 14]: 1.46% | Appearance [1, 25]: Earth yellow | Content (%) [1, 25]: 96.41% | Crystal form (XRPD) [1, 25]: form J | Total impurities (%) [1, 25]: 1.90% | Appearance [1, 16]: Earth yellow | Content (%) [1, 16]: 98.04% | Crystal form (XRPD) [1, 16]: form J | Total impurities (%) [1, 16]: 1.30% | thermal stability and stability under accelerated conditions [1]: excellent | stability under dark conditions [1]: good stability | impurities generated under light irradiation conditions [1]: slight impurities | hygroscopic weight gain ΔW [2]: 5.227% | hygroscopicity evaluation [2]: hygroscopic
